Here are results for 18 molecules from ChEMBL document CHEMBL4480409, “SGC-GAK-1: A Chemical Probe for Cyclin G Associated Kinase (GAK)” (J Med Chem, 2019).

In test [1] the target is T1, Receptor-interacting serine/threonine-protein kinase 2 (Homo sapiens, UniProt O43353). The experiment in a line: Binding affinity to biotinylated human RIPK2 (1 to 310 residues) expressed in Escherichia coli incubated for 1.5 hrs by fluorescent tracer dependent TR-FRET based competitive ligand binding displacement assay.
Test [2] addresses Atypical kinase COQ8A, mitochondrial (Homo sapiens, UniProt Q8NI60). Briefly: Binding affinity to biotinylated full length human ADCK3 expressed in Escherichia coli incubated for 1.5 hrs by fluorescent tracer dependent TR-FRET based competitive ligand binding displacement assay.
Test [3] deals with T2, Serine/threonine-protein kinase NLK (Homo sapiens, UniProt Q9UBE8).
T2 sequence (Q9UBE8 whole entry): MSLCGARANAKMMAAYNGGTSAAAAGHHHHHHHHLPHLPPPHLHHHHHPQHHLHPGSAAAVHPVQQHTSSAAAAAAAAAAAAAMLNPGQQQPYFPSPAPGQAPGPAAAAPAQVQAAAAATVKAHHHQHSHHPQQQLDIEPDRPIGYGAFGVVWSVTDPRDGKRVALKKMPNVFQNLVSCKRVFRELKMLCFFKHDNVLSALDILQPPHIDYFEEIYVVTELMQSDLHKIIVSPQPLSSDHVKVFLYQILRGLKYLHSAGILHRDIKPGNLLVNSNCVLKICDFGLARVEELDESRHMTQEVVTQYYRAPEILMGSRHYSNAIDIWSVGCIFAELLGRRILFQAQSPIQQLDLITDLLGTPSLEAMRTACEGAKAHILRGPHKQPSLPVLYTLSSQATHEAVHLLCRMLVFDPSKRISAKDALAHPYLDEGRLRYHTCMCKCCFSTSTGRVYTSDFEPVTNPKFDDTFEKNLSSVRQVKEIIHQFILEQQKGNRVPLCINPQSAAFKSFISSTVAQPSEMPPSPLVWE
The experiment in a line: Binding affinity to biotinylated full length human NLK expressed in Escherichia coli incubated for 1.5 hrs by fluorescent tracer dependent TR-FRET based competitive ligand binding displacement assay.

For test [4], the target named is BMP-2-inducible protein kinase (Homo sapiens, UniProt Q9NSY1). Briefly: Binding affinity to C-terminal AVI-tagged BMP2K (unknown origin) (38 to 345 residues) expressed in Escherichia coli after 1.5 hrs by TR-FRET assay.
The target in test [5] is T1, Receptor-interacting serine/threonine-protein kinase 2. Briefly: Displacement of fluorescent tracer from N-terminus of human RIPK2 expressed in HEK293T cells after 2 hrs by NanoBRET target engagement assay. Format: cell-based.
The test system of the next test is LNCaP. The experiment in a line: Cytotoxicity against human LNCAP cells after 72 hrs by MTS assay. Format: functional, cell-based.
The next test concerns CWR22R. Briefly: Cytotoxicity against human 22Rv1 cells after 72 hrs by MTS assay. Format: functional, cell-based. The settings on record: 22Rv1, 72 h.
Test [6] has as its target T3, Cyclin-G-associated kinase (Homo sapiens) (UniProt O14976).
T3 sequence (whole entry): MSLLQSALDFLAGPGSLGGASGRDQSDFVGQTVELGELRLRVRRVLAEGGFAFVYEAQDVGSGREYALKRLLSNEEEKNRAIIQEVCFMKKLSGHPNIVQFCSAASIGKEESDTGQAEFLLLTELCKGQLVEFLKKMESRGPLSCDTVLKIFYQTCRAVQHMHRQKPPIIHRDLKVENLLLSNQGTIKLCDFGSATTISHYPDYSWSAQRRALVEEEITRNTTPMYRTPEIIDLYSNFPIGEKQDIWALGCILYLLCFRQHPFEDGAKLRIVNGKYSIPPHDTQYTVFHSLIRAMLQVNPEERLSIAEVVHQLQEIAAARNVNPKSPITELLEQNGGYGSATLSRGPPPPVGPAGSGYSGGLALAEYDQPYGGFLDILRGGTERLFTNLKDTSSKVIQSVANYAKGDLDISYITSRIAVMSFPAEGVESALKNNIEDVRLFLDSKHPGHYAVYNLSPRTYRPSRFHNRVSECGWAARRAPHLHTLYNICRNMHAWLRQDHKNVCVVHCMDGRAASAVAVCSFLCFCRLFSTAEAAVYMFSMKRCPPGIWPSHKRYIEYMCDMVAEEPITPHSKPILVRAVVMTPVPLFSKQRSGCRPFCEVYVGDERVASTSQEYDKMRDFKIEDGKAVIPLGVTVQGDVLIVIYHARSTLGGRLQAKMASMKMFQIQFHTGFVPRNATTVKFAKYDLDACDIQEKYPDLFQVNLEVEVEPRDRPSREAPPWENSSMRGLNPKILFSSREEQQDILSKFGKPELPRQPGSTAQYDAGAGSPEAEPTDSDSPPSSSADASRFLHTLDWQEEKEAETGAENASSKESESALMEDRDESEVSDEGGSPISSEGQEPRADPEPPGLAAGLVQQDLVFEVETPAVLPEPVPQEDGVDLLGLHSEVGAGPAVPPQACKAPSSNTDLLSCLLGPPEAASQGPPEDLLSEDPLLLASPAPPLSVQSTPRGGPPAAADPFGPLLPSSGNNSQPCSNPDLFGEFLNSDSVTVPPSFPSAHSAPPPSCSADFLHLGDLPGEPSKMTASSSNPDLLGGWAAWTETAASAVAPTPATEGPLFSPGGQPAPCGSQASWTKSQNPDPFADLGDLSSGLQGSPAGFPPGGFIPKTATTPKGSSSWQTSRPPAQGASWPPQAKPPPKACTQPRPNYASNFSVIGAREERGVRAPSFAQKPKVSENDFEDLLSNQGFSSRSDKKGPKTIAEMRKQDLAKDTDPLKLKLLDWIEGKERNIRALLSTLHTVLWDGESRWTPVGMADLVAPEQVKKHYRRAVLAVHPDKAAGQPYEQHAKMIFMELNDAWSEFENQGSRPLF
Description: Binding affinity to GAK (unknown origin) assessed as change in melting temperature by DSF assay

The target of test [7] is AP2-associated protein kinase 1 (Homo sapiens, UniProt Q2M2I8). Briefly: Binding affinity to C-terminal AVI-tagged AAK1 (unknown origin) (31 to 396 residues) expressed in Escherichia coli after 1.5 hrs by TR-FRET assay.
Test [8] deals with Serine/threonine-protein kinase 16 (Homo sapiens, UniProt O75716). Briefly: Binding affinity to C-terminal AVI-tagged STK16 (unknown origin) (13 to 305 residues) expressed in Escherichia coli after 1.5 hrs by TR-FRET assay.
Test [9] deals with T4, Cyclin-G-associated kinase (Homo sapiens, UniProt O14976).
T4 sequence (O14976 whole entry): T3 sequence (whole entry)

The target of test [10] is T4, Cyclin-G-associated kinase. Briefly: Binding affinity to biotinylated human GAK (13 to 338 residues) expressed in Escherichia coli incubated for 1.5 hrs by fluorescent tracer dependent TR-FRET based competitive ligand binding displacement assay.
Test [11] has as its target T5, Interleukin-1 receptor-associated kinase 3 (Homo sapiens, UniProt Q9Y616).
T5 sequence (Q9Y616 whole entry): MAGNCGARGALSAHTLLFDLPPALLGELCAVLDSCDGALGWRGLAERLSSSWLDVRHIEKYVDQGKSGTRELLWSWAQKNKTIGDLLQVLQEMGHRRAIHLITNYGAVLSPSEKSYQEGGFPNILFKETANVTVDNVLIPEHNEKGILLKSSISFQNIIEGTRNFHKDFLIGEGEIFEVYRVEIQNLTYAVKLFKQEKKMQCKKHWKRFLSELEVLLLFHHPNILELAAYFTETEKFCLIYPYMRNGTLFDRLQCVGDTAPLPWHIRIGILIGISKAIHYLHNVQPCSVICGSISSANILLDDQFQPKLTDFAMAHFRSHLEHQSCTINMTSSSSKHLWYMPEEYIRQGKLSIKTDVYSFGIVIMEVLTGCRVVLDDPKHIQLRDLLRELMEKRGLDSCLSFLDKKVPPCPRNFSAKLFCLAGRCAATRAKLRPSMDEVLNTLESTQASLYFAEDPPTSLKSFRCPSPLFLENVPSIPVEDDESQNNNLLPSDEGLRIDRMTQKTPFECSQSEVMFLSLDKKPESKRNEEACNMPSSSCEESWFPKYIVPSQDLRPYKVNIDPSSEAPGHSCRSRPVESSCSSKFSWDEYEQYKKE
The experiment in a line: Binding affinity to human IRAK3 (147 to 596 residues) expressed in bacterial expression system by KINOMEscan assay.

Test [12] has as its target T4, Cyclin-G-associated kinase. Briefly: Displacement of fluorescent tracer from N-terminus of human GAK expressed in HEK293T cells after 2 hrs by NanoBRET target engagement assay. Format: cell-based.
Test [13] addresses T4, Cyclin-G-associated kinase. The experiment in a line: Binding affinity to GAK (unknown origin).
Test [14] concerns the target T3, Cyclin-G-associated kinase (Homo sapiens). The experiment in a line: Binding affinity to biotinylated human GAK (13 to 338 residues) expressed in Escherichia coli at 1 uM incubated for 1.5 hrs by fluorescent tracer dependent TR-FRET based competitive ligand binding displacement assay.

Atypical kinase COQ8A, mitochondrial, sequence (Q8NI60 whole entry): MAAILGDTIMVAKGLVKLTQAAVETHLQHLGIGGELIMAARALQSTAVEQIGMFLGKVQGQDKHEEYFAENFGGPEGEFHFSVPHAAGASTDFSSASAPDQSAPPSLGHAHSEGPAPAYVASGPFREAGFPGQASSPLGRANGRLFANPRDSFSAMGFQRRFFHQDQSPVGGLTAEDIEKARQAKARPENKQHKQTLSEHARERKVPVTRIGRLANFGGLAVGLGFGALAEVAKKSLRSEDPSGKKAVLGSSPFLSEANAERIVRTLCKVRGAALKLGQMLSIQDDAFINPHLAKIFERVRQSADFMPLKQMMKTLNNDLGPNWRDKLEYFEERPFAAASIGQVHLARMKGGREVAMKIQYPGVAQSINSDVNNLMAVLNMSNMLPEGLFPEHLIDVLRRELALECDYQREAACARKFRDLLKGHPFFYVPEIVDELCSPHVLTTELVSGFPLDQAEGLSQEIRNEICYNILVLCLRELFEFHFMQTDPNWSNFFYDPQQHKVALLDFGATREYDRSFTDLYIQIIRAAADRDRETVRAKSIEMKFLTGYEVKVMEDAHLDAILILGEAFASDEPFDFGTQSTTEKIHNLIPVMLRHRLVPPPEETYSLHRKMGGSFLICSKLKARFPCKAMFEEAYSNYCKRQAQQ
T1 sequence (O43353 whole entry, the tested form may be a part): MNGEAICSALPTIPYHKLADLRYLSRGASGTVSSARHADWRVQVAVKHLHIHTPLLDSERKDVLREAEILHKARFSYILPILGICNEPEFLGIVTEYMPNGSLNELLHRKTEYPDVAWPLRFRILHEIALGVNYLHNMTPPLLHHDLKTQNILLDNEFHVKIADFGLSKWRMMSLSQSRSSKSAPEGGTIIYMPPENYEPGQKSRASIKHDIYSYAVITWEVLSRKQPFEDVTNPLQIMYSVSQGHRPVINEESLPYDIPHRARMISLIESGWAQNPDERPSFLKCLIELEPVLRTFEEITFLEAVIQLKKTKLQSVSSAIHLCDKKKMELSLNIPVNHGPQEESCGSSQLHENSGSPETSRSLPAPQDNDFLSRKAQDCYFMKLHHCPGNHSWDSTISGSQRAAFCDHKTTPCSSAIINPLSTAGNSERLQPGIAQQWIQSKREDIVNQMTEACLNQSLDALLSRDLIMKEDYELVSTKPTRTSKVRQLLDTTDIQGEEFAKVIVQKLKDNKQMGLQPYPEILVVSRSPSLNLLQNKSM
BMP-2-inducible protein kinase, sequence (Q9NSY1 whole entry, the tested form may be a part): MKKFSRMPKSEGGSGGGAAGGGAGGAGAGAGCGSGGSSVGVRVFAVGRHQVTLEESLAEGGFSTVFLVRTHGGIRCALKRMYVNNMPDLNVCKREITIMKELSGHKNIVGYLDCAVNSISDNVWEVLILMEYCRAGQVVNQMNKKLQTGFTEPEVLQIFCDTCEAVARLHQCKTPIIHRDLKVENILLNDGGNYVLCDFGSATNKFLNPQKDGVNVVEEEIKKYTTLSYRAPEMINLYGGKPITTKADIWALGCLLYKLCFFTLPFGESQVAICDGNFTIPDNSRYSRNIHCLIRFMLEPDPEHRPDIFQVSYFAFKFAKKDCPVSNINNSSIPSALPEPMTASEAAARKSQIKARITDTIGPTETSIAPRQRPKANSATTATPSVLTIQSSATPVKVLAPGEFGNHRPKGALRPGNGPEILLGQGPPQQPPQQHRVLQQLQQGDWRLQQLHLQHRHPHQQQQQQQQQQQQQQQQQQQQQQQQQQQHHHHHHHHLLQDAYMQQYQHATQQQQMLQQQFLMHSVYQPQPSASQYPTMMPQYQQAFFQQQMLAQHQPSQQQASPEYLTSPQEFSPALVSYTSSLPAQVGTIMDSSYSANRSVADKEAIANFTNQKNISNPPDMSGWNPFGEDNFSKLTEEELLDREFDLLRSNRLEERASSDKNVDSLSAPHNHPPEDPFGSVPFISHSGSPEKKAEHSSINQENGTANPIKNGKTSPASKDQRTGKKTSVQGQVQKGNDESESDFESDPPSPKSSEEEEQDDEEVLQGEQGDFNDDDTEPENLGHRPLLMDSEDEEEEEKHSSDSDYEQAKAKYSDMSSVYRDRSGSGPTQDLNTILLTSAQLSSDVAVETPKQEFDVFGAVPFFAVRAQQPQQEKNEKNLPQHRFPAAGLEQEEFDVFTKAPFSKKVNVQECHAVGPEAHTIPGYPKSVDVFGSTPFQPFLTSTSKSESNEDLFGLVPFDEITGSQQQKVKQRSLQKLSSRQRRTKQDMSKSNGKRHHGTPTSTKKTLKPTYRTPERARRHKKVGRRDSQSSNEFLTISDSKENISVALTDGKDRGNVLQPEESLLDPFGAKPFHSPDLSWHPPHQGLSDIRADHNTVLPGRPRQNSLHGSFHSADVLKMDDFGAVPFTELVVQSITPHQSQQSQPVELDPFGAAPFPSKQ
AP2-associated protein kinase 1, sequence (Q2M2I8 whole entry, the tested form may be a part): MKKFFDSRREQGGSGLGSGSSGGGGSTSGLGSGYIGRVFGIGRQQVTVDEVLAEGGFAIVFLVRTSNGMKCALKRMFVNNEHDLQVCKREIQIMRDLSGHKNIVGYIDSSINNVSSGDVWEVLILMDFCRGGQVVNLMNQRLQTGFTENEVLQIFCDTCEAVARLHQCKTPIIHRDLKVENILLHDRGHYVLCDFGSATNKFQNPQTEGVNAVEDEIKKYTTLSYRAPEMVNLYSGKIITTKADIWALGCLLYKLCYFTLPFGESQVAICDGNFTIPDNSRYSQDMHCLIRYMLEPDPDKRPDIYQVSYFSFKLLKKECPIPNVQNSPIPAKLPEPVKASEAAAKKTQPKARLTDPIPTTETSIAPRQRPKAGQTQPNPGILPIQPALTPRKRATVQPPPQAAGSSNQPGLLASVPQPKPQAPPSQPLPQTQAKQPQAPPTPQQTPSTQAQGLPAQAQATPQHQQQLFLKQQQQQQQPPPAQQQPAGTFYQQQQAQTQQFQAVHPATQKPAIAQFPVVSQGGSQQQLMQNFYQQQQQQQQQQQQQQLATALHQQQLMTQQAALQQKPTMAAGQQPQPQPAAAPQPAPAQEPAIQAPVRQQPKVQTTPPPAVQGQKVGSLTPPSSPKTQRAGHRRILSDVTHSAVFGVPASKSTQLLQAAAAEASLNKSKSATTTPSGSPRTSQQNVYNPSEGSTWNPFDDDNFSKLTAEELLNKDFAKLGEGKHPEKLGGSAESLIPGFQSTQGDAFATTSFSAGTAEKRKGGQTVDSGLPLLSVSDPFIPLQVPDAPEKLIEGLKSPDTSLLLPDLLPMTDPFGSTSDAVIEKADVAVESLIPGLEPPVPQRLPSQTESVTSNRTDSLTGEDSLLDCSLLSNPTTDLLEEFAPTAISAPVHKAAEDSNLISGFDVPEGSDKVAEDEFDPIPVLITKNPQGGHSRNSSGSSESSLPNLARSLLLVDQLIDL
Serine/threonine-protein kinase 16, sequence (O75716 whole entry, the tested form may be a part): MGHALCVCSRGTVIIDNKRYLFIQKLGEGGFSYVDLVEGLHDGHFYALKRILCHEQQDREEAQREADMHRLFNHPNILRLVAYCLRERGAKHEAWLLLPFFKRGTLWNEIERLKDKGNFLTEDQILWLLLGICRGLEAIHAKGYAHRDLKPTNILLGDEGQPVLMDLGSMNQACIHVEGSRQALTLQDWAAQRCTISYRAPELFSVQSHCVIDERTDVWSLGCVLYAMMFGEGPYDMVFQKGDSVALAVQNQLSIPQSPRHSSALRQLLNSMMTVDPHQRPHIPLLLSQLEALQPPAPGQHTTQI

For `COc1cc(Nc2ccnc3ccc(Br)cc23)cc(OC)c1OC`, the dissociation constant Kd in [1] is 110 nM; in test [2] it was 190 nM; in test [3] it was 520 nM. In [4], this molecule showed an inhibition constant (Ki) above 100000 nM. The concentration for half-maximal inhibition (IC50) is 360 nM in [5], 650 nM in the test with LNCaP and 170 nM in the test on CWR22R. In addition, in test [6], the ΔTm was determined as 7.7 °C.
For `COc1cc(Nc2cc(C)nc3ccc(C(F)(F)F)cc23)cc(OC)c1OC`, the Ki was above 100000 nM in [7], above 100000 nM in [4], above 100000 nM in [8] and 19000 nM in [9]. Besides, the ΔTm in [6] was -0.52 °C.
As for `COc1cc(Nc2ccnc3cc(C#N)ccc23)cc(OC)c1OC`, the Kd in test [10] came to 9.7 nM; in test [1], 96 nM; in [2], 66 nM; in test [3], 28 nM.
`COc1cc(Nc2ccnc3ccc(Cl)cc23)cc(OC)c1OC`: the dissociation constant (Kd) in test [10] is 6.7 nM; in test [1], 85 nM; in test [2], 170 nM; in test [3], 650 nM.
As for `COc1cc(N(C)c2ccnc3ccc(C(F)(F)F)cc23)cc(OC)c1OC`, the inhibition constant (Ki) in test [7] came out at 78000 nM; in [4], 95000 nM; in test [8], 15000 nM; in test [9], 2500 nM. The Kd in test [11] stood at 740 nM. The IC50 in the test on LNCaP and in the test with CWR22R was above 100000 nM in each case. Moreover, the ΔTm in test [6] is -0.3 °C.
`CC(C)(C)S(=O)(=O)c1cc2c(Nc3ccc4scnc4c3)ncnc2cc1OCCO`: the concentration for half-maximal inhibition (IC50) in test [12] was above 10000 nM; in test [5], 2 nM. The same molecule yielded a Ki in test [9] of 8200 nM.
In turn, `Cc1[nH]nc(Nc2ncnc3cc(OCCO)c(S(=O)(=O)C(C)(C)C)cc23)c1C` had a Ki in [9] of 49 nM.
Consider `Clc1cc2cc(c1)-c1cnn3ccc(nc13)NCCOCCO2`, for which the figures for the half-inhibitory concentration (IC50) in test [12] and in test [5] were 60 nM and 11 nM, respectively. The affinity in test [9], expressed as Ki, was 3.8 nM.
As for `CC(C)(C)S(=O)(=O)c1ccc2nccc(Nc3n[nH]c4ccc(F)cc34)c2c1`, affinity in test [9] was put at a Ki of 220 nM.
For `COc1cc(Nc2ccnc3ccccc23)cc(OC)c1OC`, the dissociation constant Kd in [10] worked out at 59 nM; in test [1], 2900 nM; in test [2], 4100 nM; in test [3], 6200 nM.
In the same order, the values of `COc1cc2nccc(Nc3cc(OC)c(OC)c(OC)c3)c2cc1OC` are 2.9 nM, 42 nM, 250 nM and 410 nM.
Regarding `COc1cc(Nc2ccnc3ccc(I)cc23)cc(OC)c1OC`, the Kd in test [10] came to 7.9 nM; in [1], 69 nM; in test [2], 190 nM; in test [3], 660 nM.
`COc1cc(-c2cnc3c(N4CCOCC4)snc3c2)cc(OC)c1OC`: the equilibrium dissociation constant (Kd) in test [13] worked out at 8.9 nM.
For the molecule `COc1cc(Nc2ccnc3ccc(C#N)cc23)cc(OC)c1OC`, the Kd in test [10] worked out at 3.9 nM; in test [1] it was 88 nM; in [2] it was 170 nM; in test [3], 29 nM.
As for `COc1ccc2c(Nc3cc(OC)c(OC)c(OC)c3)ccnc2c1`, the equilibrium dissociation constant (Kd) is 17 nM in test [10], 200 nM in test [1], 1200 nM in test [2] and 700 nM in test [3].
As to `COc1cc(Nc2ccnc3ccc(C(C)(C)C)cc23)cc(OC)c1OC`, the equilibrium dissociation constant (Kd) in test [10] stood at 25 nM; in test [1], 670 nM; in [2] it was 740 nM; in [3], 350 nM.
As to `COc1cc(Nc2ccnc3ccc(C(F)(F)F)cc23)cc(OC)c1OC`, in test [3], the Kd was determined as 790 nM. In test [14], this molecule returned an Activity above 50%.
As for `COc1ccc2nccc(Nc3cc(OC)c(OC)c(OC)c3)c2c1`, the Kd in [10] is 21 nM; in [1], 170 nM; in test [2], 2000 nM; in test [3] it was 2600 nM.
